The values that follow come from patent US20230233569A1 (Revolution Medicines, Inc., priority 2020, published 2023).

One test deals with Capan-1 (K-Ras G12V). The test can be described thus: CellTiter-Glo cell viability assay, 5-day treatment. The format is cell-based. The note with it: Homo sapiens, CAPAN-1, 120 h, 5-day treatment; read-out: Capan-1 Cell Viability assay data (K-Ras G12V, IC50). In outline:
(§1)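 Luminescence read-out after 5 days of compound exposure, with plates first brought to room temperature for roughly 30 minutes. Values are percent of averaged DMSO wells, fitted by four-parameter logistic regression.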

A further test deals with NCI-H358 (K-Ras G12C). The description is as above. The note with it: Homo sapiens, NCI-H358, 120 h, 5-day treatment; read-out: H358 Cell Viability assay data (K-Ras G12C, IC50). Type of test: cell-based. In outline:
as §1

A further test addresses KRAS G12C (Homo sapiens, UniProt P01116+P62937, G12C). As to the kind of experiment: Disruption of BRAF RBD interaction with Ras (FRET / MOA assay, with Cyclophilin A). The note with it: read-out: KRAS G12C FRET data, IC50. The format is biochemical. An outline of the steps:
(§2)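 IC50 values reflect loss of K-Ras binding to BRAF RBD, read as a lowered TR-FRET ratio compared with DMSO, driven by compound-mediated K-Ras:Cyclophilin A complex formation. Compound top dose 30 μM final, 3-fold steps, 3 h incubation at 25 °C before a 1.5 h antibody step.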

The target of another test is KRAS G12D (Homo sapiens, UniProt P01116+P62937, G12D). The test is described as above. Type of test: biochemical. The settings on record: read-out: KRAS G12D FRET data, IC50. An outline of the steps: as §2
The target of the next test is KRAS G12S (Homo sapiens, UniProt P01116+P62937, G12S). Described as above. The format is biochemical. The note with it: read-out: KRAS G12S FRET data, IC50. An outline of the steps: as §2
Another test deals with KRAS G12V (Homo sapiens, UniProt P01116+P62937, G12V). The test is described as above. Type of test: biochemical. The note with it: KRAS G12V; read-out: KRAS G12V FRET data IC50. In outline:
as §2

In the next test the target is KRAS G13C (Homo sapiens, UniProt P01116+P62937, G13C). Described as above. The format is biochemical. The settings on record: read-out: KRAS G13C FRET data, IC50. In outline: as §2
In a further test the target is KRAS G13D (Homo sapiens, UniProt P01116+P62937, G13D). Described as above. The format is biochemical. The settings on record: KRAS G13D; read-out: KRAS G13D FRET data IC50. An outline of the steps:
as §2

For the next test, the target named is KRAS WT (Homo sapiens, UniProt P01116+P62937). Described as above. The format is biochemical. The note with it: KRAS WT; read-out: KRAS WT FRET data IC50. An outline of the steps: as §2
The next test concerns the target NRAS G12C (Homo sapiens, UniProt P01111+P62937, G12C). The test is described as above. The format is biochemical. The settings on record: NRAS G12C; read-out: NRAS G12C FRET data IC50.

Bounds are passed on as bounds.

Chain of KRAS G12V (P01116 1-169 isoform P01116-2 G12V limits assumed): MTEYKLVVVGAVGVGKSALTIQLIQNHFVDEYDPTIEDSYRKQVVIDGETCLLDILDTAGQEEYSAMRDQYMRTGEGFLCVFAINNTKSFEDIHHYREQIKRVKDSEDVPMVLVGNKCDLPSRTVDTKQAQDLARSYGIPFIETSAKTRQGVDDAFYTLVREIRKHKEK
Chain of KRAS G12V (P62937 whole entry): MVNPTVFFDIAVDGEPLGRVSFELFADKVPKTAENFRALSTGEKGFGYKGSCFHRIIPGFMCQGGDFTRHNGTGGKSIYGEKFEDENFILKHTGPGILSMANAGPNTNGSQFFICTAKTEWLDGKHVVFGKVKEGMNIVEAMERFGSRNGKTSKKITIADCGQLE
Chain of KRAS G12S (P01116 1-169 isoform P01116-2 G12S limits assumed): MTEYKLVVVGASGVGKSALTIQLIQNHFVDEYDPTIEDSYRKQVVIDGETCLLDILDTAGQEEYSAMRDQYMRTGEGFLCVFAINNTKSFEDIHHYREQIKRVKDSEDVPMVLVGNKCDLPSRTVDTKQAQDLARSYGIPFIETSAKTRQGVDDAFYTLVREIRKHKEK
Chain of KRAS G12S (P62937 whole entry): as the sequence (P62937 whole entry) above
Chain of KRAS G13C (P01116 1-169 isoform P01116-2 G13C): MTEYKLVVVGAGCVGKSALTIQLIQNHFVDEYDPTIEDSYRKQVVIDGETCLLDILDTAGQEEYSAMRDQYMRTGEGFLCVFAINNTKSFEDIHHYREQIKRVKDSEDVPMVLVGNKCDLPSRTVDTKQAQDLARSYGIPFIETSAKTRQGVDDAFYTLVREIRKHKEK
Chain of KRAS G13C (P62937 whole entry): as the sequence (P62937 whole entry) above
Chain of KRAS G12D (P01116 1-169 isoform P01116-2 G12D limits assumed): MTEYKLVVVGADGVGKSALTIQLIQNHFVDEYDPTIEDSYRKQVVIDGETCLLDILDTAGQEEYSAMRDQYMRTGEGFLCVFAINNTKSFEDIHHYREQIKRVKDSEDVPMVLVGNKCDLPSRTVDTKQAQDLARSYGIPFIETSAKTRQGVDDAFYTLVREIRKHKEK
Chain of KRAS G12D (P62937 whole entry): as the sequence (P62937 whole entry) above
Chain of KRAS G12C (P01116 1-169 isoform P01116-2 G12C): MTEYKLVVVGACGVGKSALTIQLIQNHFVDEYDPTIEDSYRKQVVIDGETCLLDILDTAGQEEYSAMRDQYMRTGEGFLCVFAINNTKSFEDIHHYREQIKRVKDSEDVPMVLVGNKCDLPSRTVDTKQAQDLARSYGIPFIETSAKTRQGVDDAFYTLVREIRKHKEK
Chain of KRAS G12C (P62937 whole entry): as the sequence (P62937 whole entry) above
Chain of NRAS G12C (P01111 whole entry G12C): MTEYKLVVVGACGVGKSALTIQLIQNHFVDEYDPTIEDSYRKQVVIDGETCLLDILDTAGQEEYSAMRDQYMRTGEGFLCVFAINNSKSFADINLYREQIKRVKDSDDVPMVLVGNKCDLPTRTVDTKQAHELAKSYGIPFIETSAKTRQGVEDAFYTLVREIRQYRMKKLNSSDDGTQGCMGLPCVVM
Chain of NRAS G12C (P62937 whole entry): as the sequence (P62937 whole entry) above
Chain of KRAS WT (P01116 1-169 isoform P01116-2 limits assumed): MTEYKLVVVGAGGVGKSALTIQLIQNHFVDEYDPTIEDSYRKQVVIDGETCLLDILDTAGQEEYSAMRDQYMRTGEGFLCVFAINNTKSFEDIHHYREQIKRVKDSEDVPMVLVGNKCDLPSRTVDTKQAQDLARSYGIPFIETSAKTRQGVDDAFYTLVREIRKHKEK
Chain of KRAS WT (P62937 whole entry): as the sequence (P62937 whole entry) above
Chain of KRAS G13D (P01116 1-169 isoform P01116-2 G13D limits assumed): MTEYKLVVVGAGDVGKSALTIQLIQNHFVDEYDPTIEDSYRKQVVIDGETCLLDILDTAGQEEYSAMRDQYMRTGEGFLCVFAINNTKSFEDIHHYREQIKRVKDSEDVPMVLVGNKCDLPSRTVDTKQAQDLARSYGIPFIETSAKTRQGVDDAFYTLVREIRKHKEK
Chain of KRAS G13D (P62937 whole entry): as the sequence (P62937 whole entry) above

Regarding `CCn1c(-c2cccnc2[C@H](C)OC)c2c3cc(ccc31)-c1cc(O)cc(c1)C[C@H](NC(=O)[C@H](C(C)C)N(C)C(=O)[C@H]1CCCN[C@@H]1C)C(=O)N1CCC[C@H](N1)C(=O)OCC(C)(C)C2` [Example A134], the IC50 in the test with Capan-1 (K-Ras G12V) was more than 10000 nM; in the test on NCI-H358 (K-Ras G12C) it was 1000 to 10000 nM; on KRAS G12C it was 100 to 1000 nM; on KRAS G12D, 10 to 100 nM; at KRAS G12S, 100 to 1000 nM; at KRAS G12V it was 1000 to 10000 nM. Besides, the IC50 at KRAS G13C was 10 to 100 nM; on KRAS G13D, 10 to 100 nM; on KRAS WT, 100 to 1000 nM; at NRAS G12C, 100 to 1000 nM.
With `CCn1c(-c2cccnc2[C@H](C)OC)c2c3cc(ccc31)-c1csc(n1)C[C@H](NC(=O)[C@H](C(C)C)N(C)C(=O)NC)C(=O)N1CCC[C@H](N1)C(=O)OCC(C)(C)C2` [Example A137], the IC50 lay within 100 to 1000 nM in the test with Capan-1 (K-Ras G12V); 100 to 1000 nM in the test with NCI-H358 (K-Ras G12C); 100 to 1000 nM on KRAS G12C; 1000 to 10000 nM on KRAS G12D; 1000 to 10000 nM at KRAS G12S; 100 to 1000 nM on KRAS G12V. The IC50 on KRAS G13C lay in the range of 1000 to 10000 nM; at KRAS G13D, 1000 to 10000 nM; on KRAS WT, 100 to 1000 nM; at NRAS G12C it was 100 to 1000 nM.
In the case of `CCn1c(-c2cccnc2[C@H](C)OC)c2c3cc(ccc31)-c1csc(n1)C[C@H](NC(=O)[C@H](C1CCCC1)N(C)C(C)=O)C(=O)N1CCC[C@H](N1)C(=O)OCC(C)(C)C2` [Example A141], the IC50 in the test with Capan-1 (K-Ras G12V) was 10 to 100 nM; with NCI-H358 (K-Ras G12C), 10 to 100 nM; on KRAS G12C, 1000 to 10000 nM; at KRAS G12D, more than 10000 nM; on KRAS G12S it was 1000 to 10000 nM; on KRAS G12V it was 1000 to 10000 nM. Also, the IC50 on KRAS G13C, at KRAS G13D, on KRAS WT and at NRAS G12C was 1000 to 10000 nM each time.
In the case of `CCn1c(-c2cccnc2[C@H](C)OC)c2c3cc(ccc31)-c1csc(n1)C[C@H](NC(=O)[C@H](C(C)C)N(C)C(=O)[C@@H]1OCC[C@@H]1C)C(=O)N1CCC[C@H](N1)C(=O)OCC(C)(C)C2` [Example A143], the IC50 is 100 to 1000 nM in the test on Capan-1 (K-Ras G12V); 100 to 1000 nM with NCI-H358 (K-Ras G12C); 1000 to 10000 nM at KRAS G12C; more than 10000 nM on KRAS G12D; 1000 to 10000 nM at KRAS G12S; 1000 to 10000 nM at KRAS G12V. Also, the IC50 on KRAS G13C, at KRAS G13D, on KRAS WT and on NRAS G12C was 1000 to 10000 nM throughout.
On to `CCn1c(-c2cccnc2[C@H](C)OC)c2c3cc(ccc31)-c1cc(O)cc(c1)C[C@H](NC(=O)[C@H](C(C)C)N(C)C(=O)[C@H]1C[C@H]1C)C(=O)N1CCC[C@H](N1)C(=O)OCC(C)(C)C2` [Example A146], for which the IC50 in the test with Capan-1 (K-Ras G12V) is 100 to 1000 nM; in the test on NCI-H358 (K-Ras G12C), 100 to 1000 nM; on KRAS G12C, 10 to 100 nM; on KRAS G12D, 100 to 1000 nM; on KRAS G12S it was 100 to 1000 nM; at KRAS G12V it was 10 to 100 nM. Also, the IC50 on KRAS G13C fell in the range of 10 to 100 nM; at KRAS G13D it was 100 to 1000 nM; at KRAS WT, 10 to 100 nM; on NRAS G12C, 10 to 100 nM.
On to `CCn1c(-c2cccnc2[C@H](C)OC)c2c3cc(ccc31)-c1cc(O)cc(c1)C[C@H](NC(=O)[C@H](C(C)C)N(C)C(=O)[C@@H]1C[C@H]1C)C(=O)N1CCC[C@H](N1)C(=O)OCC(C)(C)C2` [Example A147], for which the IC50 in the test on Capan-1 (K-Ras G12V) lay in the range of 100 to 1000 nM; in the test with NCI-H358 (K-Ras G12C) it was 10 to 100 nM; at KRAS G12C it was 10 to 100 nM; at KRAS G12D, 100 to 1000 nM; on KRAS G12S, 10 to 100 nM; on KRAS G12V, 10 to 100 nM. Also, the IC50 at KRAS G13C lay within 10 to 100 nM; at KRAS G13D it was 100 to 1000 nM; on KRAS WT, 10 to 100 nM; on NRAS G12C, 10 to 100 nM.
